According to US20240376163A1, “PEPTIDE FOR INHIBITING CALCINEURIN AND USE THEREOF” (Seoul National University R&DB Foundation, priority 2023, published 2024):

Test system: Jurkat T cells
Test: mRNA sequencing of activated Jurkat T cells
Format: cell-based, human

SMILES: C=CC[C@@H]1/C=C(\C)C[C@H](C)C[C@H](OC)[C@H]2O[C@@](O)(C(=O)C(=O)N3CCCC[C@H]3C(=O)O[C@H](/C(C)=C/[C@@H]3CC[C@@H](O)[C@H](OC)C3)[C@H](C)[C@@H](O)CC1=O)[C@H](C)C[C@@H]2OC [FK506, Tacrolimus, reference compound]
- GPR108 FPKM (P+I): 31.682 FPKM
- GPR183 FPKM (P+I): 5.776 FPKM
- GRAP2 FPKM (P+I): 19.094 FPKM
- GRK5 FPKM (P+I): 8.481 FPKM
- GZMH FPKM (P+I): 7.694 FPKM
- HAPLN3 FPKM (P+I): 48.4 FPKM
- HDC FPKM (P+I): 26.3 FPKM
- HHIP FPKM (P+I): 9.345 FPKM
- HHIP-AS1 FPKM (P+I): 32.468 FPKM
- HIVEP2 FPKM (P+I): 7.494 FPKM
- HSP90B1 FPKM (P+I): 877.39 FPKM
- HSP90B2P FPKM (P+I): 8.45 FPKM
- HSPA5 FPKM (P+I): 373.499 FPKM
- ICAM1 FPKM (P+I): 12.704 FPKM
- ID2 FPKM (P+I): 13.425 FPKM
- IER2 FPKM (P+I): 181.539 FPKM
- IER3 FPKM (P+I): 31.73 FPKM
- IFFO2 FPKM (P+I): 2.752 FPKM
- IFIH1 FPKM (P+I): 11.544 FPKM
- IFNG FPKM (P+I): 3.8 FPKM
- IGLL1 FPKM (P+I): 3.429 FPKM
- IGSF9B FPKM (P+I): 7.175 FPKM
- IL2RA FPKM (P+I): 5.833 FPKM
- IL3 FPKM (P+I): 0.062 FPKM
- IL4I1 FPKM (P+I): 7.078 FPKM
- IL16 FPKM (P+I): 10.552 FPKM
- IL22 FPKM (P+I): 3.116 FPKM
- IL23A FPKM (P+I): 12.207 FPKM
- IMPA2 FPKM (P+I): 3.015 FPKM
- IRF8 FPKM (P+I): 1.19 FPKM
- IRF9 FPKM (P+I): 39.109 FPKM
- ISM1 FPKM (P+I): 0.726 FPKM
- JAK3 FPKM (P+I): 8.03 FPKM
- JUN FPKM (P+I): 3.835 FPKM
- JUNB FPKM (P+I): 55.036 FPKM
- KBTBD11 FPKM (P+I): 2.434 FPKM
- KCNK5 FPKM (P+I): 3.906 FPKM
- KCTD11 FPKM (P+I): 3.399 FPKM
- KIAA0922 FPKM (P+I): 12.92 FPKM
- KIF1B FPKM (P+I): 11.727 FPKM
- KIF3B FPKM (P+I): 13.87 FPKM
- KLF2 FPKM (P+I): 1.971 FPKM
- KSR1 FPKM (P+I): 4.79 FPKM
- LAIR2 FPKM (P+I): 2.203 FPKM
- LAMP3 FPKM (P+I): 6.412 FPKM
- LAX1 FPKM (P+I): 8.052 FPKM
- LDLRAP1 FPKM (P+I): 0.778 FPKM
- LIME1 FPKM (P+I): 15.749 FPKM
- LINC00152 FPKM (P+I): 32.822 FPKM
- LINC00426 FPKM (P+I): 1.041 FPKM
- LINC00528 FPKM (P+I): 5.759 FPKM
- LINC00539 FPKM (P+I): 5.004 FPKM
- LINC00977 FPKM (P+I): 0.741 FPKM
- LOC729603 FPKM (P+I): 2.179 FPKM
- LRRC8B FPKM (P+I): 3.555 FPKM
- LRRC45 FPKM (P+I): 4.142 FPKM
- LYPD3 FPKM (P+I): 2.727 FPKM
- MAP2K3 FPKM (P+I): 41.815 FPKM
- MAP2K6 FPKM (P+I): 1.149 FPKM
- MBOAT2 FPKM (P+I): 3.773 FPKM
- MCM4 FPKM (P+I): 26.368 FPKM
- MCM5 FPKM (P+I): 37.057 FPKM
- METRNL FPKM (P+I): 7.501 FPKM
- MIR221 FPKM (P+I): 10.429 FPKM
- MIR4435-1HG FPKM (P+I): 17.138 FPKM
- MIR6891 FPKM (P+I): 24.428 FPKM
- MMP10 FPKM (P+I): 11.973 FPKM
- MRPL39 FPKM (P+I): 132.452 FPKM
- MYO1D FPKM (P+I): 4.59 FPKM
- MYO1G FPKM (P+I): 98.59 FPKM
- MYO7B FPKM (P+I): 15.796 FPKM
- NAMPT FPKM (P+I): 34.628 FPKM
- NDFIP1 FPKM (P+I): 22.485 FPKM
- NDFIP2 FPKM (P+I): 13.13 FPKM
- NDST3 FPKM (P+I): 10.369 FPKM
- NEIL3 FPKM (P+I): 9.418 FPKM
- NEXN FPKM (P+I): 3.661 FPKM
- NFE2L3 FPKM (P+I): 15.944 FPKM
- NFKBIA FPKM (P+I): 39.193 FPKM
- NFKBID FPKM (P+I): 6.668 FPKM
- NFKBIE FPKM (P+I): 11.399 FPKM
- NINJ1 FPKM (P+I): 11.769 FPKM
- NKD2 FPKM (P+I): 3.385 FPKM
- NKX3-1 FPKM (P+I): 7.464 FPKM
- NLRC5 FPKM (P+I): 38.784 FPKM
- NPY FPKM (P+I): 4.771 FPKM
- NR4A1 FPKM (P+I): 52.553 FPKM
- NR4A2 FPKM (P+I): 0.04 FPKM
- NRROS FPKM (P+I): 36.775 FPKM
- NT5M FPKM (P+I): 1.582 FPKM
- NXN FPKM (P+I): 2.574 FPKM
- OAS3 FPKM (P+I): 13.085 FPKM
- OSBPL3 FPKM (P+I): 24.517 FPKM
- PARP9 FPKM (P+I): 84.306 FPKM
- PARP14 FPKM (P+I): 65.432 FPKM
- PCBP3 FPKM (P+I): 4.527 FPKM
- PDE3B FPKM (P+I): 9.108 FPKM
- PEAK1 FPKM (P+I): 5.442 FPKM
- PELI1 FPKM (P+I): 8.175 FPKM
- PHEX FPKM (P+I): 0.213 FPKM
- PHF7 FPKM (P+I): 3.968 FPKM
- PHLDA1 FPKM (P+I): 65.703 FPKM
- PIDD1 FPKM (P+I): 5.28 FPKM
- PIM3 FPKM (P+I): 42.827 FPKM
- PKIA FPKM (P+I): 13.962 FPKM
- PLAU FPKM (P+I): 45.171 FPKM
- PLEKHO1 FPKM (P+I): 47.519 FPKM
- PLK3 FPKM (P+I): 5.257 FPKM
- PMAIP1 FPKM (P+I): 26.095 FPKM
- PMEPA1 FPKM (P+I): 3.548 FPKM
- PODXL FPKM (P+I): 1.86 FPKM
- POU3F2 FPKM (P+I): 1.044 FPKM
- PPFIBP1 FPKM (P+I): 12.205 FPKM
- PPM1H FPKM (P+I): 4.492 FPKM
- PRKCA FPKM (P+I): 14.104 FPKM
- PTK2 FPKM (P+I): 13.215 FPKM
- PTPN22 FPKM (P+I): 6.37 FPKM
- PTPRE FPKM (P+I): 14.031 FPKM
- PWWP2B FPKM (P+I): 2.769 FPKM
- PXMP2 FPKM (P+I): 5.624 FPKM
- RAG1 FPKM (P+I): 0.251 FPKM
- RAG2 FPKM (P+I): 0.173 FPKM
- RAP1GAP2 FPKM (P+I): 0.368 FPKM
- RAP1GAP FPKM (P+I): 1.878 FPKM
- RDH10 FPKM (P+I): 5.856 FPKM
- REL FPKM (P+I): 4.749 FPKM
- RELB FPKM (P+I): 29.337 FPKM
- RGS3 FPKM (P+I): 2.142 FPKM
- RGS16 FPKM (P+I): 1.172 FPKM
- RMI1 FPKM (P+I): 8.984 FPKM
- RORB FPKM (P+I): 3.782 FPKM
- S1PR1 FPKM (P+I): 0.737 FPKM
- SAMD1 FPKM (P+I): 15.561 FPKM
- SECISBP2L FPKM (P+I): 13.57 FPKM
- SELPLG FPKM (P+I): 5.062 FPKM
- SEMA7A FPKM (P+I): 26.567 FPKM
- SERPINB2 FPKM (P+I): 2.905 FPKM
- SERPINE1 FPKM (P+I): 6.785 FPKM
- SH2B3 FPKM (P+I): 13.899 FPKM
- SH2D5 FPKM (P+I): 1.469 FPKM
- SH3BGRL3 FPKM (P+I): 408.163 FPKM
- SH3RF2 FPKM (P+I): 27.941 FPKM
- SHC4 FPKM (P+I): 0.663 FPKM
- SIT1 FPKM (P+I): 48.56 FPKM
- SIX6 FPKM (P+I): 15.688 FPKM
- SLC2A3 FPKM (P+I): 45.525 FPKM
- SLC2A4RG FPKM (P+I): 2.367 FPKM
- SLC7A5 FPKM (P+I): 207.842 FPKM
- SLC25A45 FPKM (P+I): 3.26 FPKM
- SLCO3A1 FPKM (P+I): 3.481 FPKM
- SLIT1 FPKM (P+I): 2.6 FPKM
- SMIM14 FPKM (P+I): 7.677 FPKM
- SOCS1 FPKM (P+I): 9.708 FPKM
- SOCS3 FPKM (P+I): 8.922 FPKM
- SOSTDC1 FPKM (P+I): 8.472 FPKM
- SPRY2 FPKM (P+I): 16.882 FPKM
- SREBF1 FPKM (P+I): 14.076 FPKM
- ST3GAL6-AS1 FPKM (P+I): 9.039 FPKM
- ST8SIA4 FPKM (P+I): 11.077 FPKM
- STARD4 FPKM (P+I): 20.118 FPKM
- STAT1 FPKM (P+I): 611.139 FPKM
- STAT5A FPKM (P+I): 3.347 FPKM
- STX11 FPKM (P+I): 2.733 FPKM
- SYTL1 FPKM (P+I): 15.004 FPKM
- TBC1D10C FPKM (P+I): 23.871 FPKM
- TBC1D20 FPKM (P+I): 17.7 FPKM
- TBX21 FPKM (P+I): 24.784 FPKM
- THY1 FPKM (P+I): 3.994 FPKM
- TIMP2 FPKM (P+I): 1.948 FPKM
- TM4SF1 FPKM (P+I): 0.439 FPKM
- TM7SF3 FPKM (P+I): 29.483 FPKM
- TMEM229B FPKM (P+I): 6.813 FPKM
- TMTC4 FPKM (P+I): 2.677 FPKM
- TNFRSF4 FPKM (P+I): 2.933 FPKM
- TNFRSF12A FPKM (P+I): 8.559 FPKM
- TNFRSF14 FPKM (P+I): 12.35 FPKM
- TNFSF9 FPKM (P+I): 2.568 FPKM
- TNRC6C FPKM (P+I): 4.711 FPKM
- TNS3 FPKM (P+I): 0.678 FPKM
- TRAF1 FPKM (P+I): 11.176 FPKM
- TRAT1 FPKM (P+I): 7.968 FPKM
- TRIM22 FPKM (P+I): 2.908 FPKM
- TSHR FPKM (P+I): 1.535 FPKM
- TSPAN2 FPKM (P+I): 2.414 FPKM
- TSPAN7 FPKM (P+I): 44.718 FPKM
- TTC28 FPKM (P+I): 2.798 FPKM
- TUBB2A FPKM (P+I): 7.594 FPKM
- TUBB3 FPKM (P+I): 9.713 FPKM
- UHRF1BP1L FPKM (P+I): 7.474 FPKM
- USP30-AS1 FPKM (P+I): 6.464 FPKM
- VANGL1 FPKM (P+I): 9.553 FPKM
- VASH2 FPKM (P+I): 5.761 FPKM
- VGF FPKM (P+I): 59.749 FPKM
- XAF1 FPKM (P+I): 15.924 FPKM
- XBP1 FPKM (P+I): 43.828 FPKM
- XYLB FPKM (P+I): 1.506 FPKM
- YBX2 FPKM (P+I): 1.555 FPKM
- ZC3H12A FPKM (P+I): 13.36 FPKM
- CD27 and CD70 expression (upon T-cell activation): inhibited CD27 and CD70
- RNA levels of representative T-cell activation markers (IL2, IL3, NFATC1, CCL4, CCL20, CXCL8) (upon T-cell activation): reduced RNA levels of representative T-cell activation markers
